According to patent US20250325534A1, “MICROBIOCIDAL TETRAHYDROISOQUINOLINE DERIVATIVES” (SYNGENTA CROP PROTECTION AG, priority 2021, published 2025):

Legend:
Botryotinia fuckeliana = Botryotinia fuckeliana (Botrytis cinerea) / liquid culture (gray mould); type: cell-based; conditions: 72 h, growth inhibition photometrically 3-4 days after application, read-out: control of Botryotinia fuckeliana
Protocol: (§1) Example B2: Botryotinia Fuckeliana (Botrytis cinerea)/Liquid Culture (Gray Mould) Conidia of the fungus from cryogenic storage are directly mixed into a nutrient broth (Vogels broth). After placing a DMSO solution of test compound into a microtiter plate (96-well format), the nutrient broth containing the fungal spores is added. The test plates are incubated at 24° C. and the inhibition of growth is determined photometrically 3-4 days after application.

Glomerella lagenarium = Glomerella lagenarium (Colletotrichum lagenarium) / liquid culture (anthracnose); type: cell-based; conditions: Colletotrichum orbiculare, 72 h, photometrically 3-4 days after application, read-out: control of Glomerella lagenarium
Protocol: as §1, with “B5: Glomerella Lagenarium (Colletotrichum Lagenarium)/Liquid” for “B2: Botryotinia Fuckeliana (Botrytis cinerea)/Liquid”, “(Anthracnose)” for “(Gray Mould)”, “(potato dextrose” for “(Vogels”, “measured” for “determined”

Monographella nivalis = Monographella nivalis (Microdochium nivale) / liquid culture (foot rot cereals); type: cell-based; conditions: 96 h, photometrically 4-5 days after application, read-out: control of Monographella nivalis
Method in brief: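 Test compound, applied as a DMSO solution, was challenged with fungal spores suspended in potato dextrose broth; after 4-5 days at 24° C, photometric readout gave inhibition of growth.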

Mycosphaerella arachidis = Mycosphaerella arachidis (Cercospora arachidicola) / liquid culture (early leaf spot); type: cell-based; conditions: 96 h, photometrically 4-5 days after application, read-out: control of Mycosphaerella arachidis
Method in brief: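 Photometric growth inhibition, read 4-5 days post-application at 24 °C, of Cercospora arachidicola spores suspended in potato dextrose broth and exposed to test compound delivered from DMSO solution.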

[1] = system: Mycosphaerella graminicola; test: Mycosphaerella graminicola (Septoria tritici) / liquid culture (Septoria blotch); type: cell-based; conditions: Zymoseptoria tritici, 96 h, photometrically 4-5 days after application, read-out: control of Mycosphaerella graminicola
Method in brief: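 Growth inhibition measured by photometry 4-5 days post application, at 24° C incubation. Test compound supplied as DMSO solution; fungal conidia from cryostorage suspended directly in potato dextrose broth as inoculum.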

Alternaria solani = Alternaria solani / tomato / leaf disc (early blight); type: in vivo; conditions: foliar, inoculated 2 days after application, vs untreated control
Protocol: Example B1: Alternaria solani/Tomato/Leaf Disc (Early Blight) Tomato leaf disks cv. Baby are placed on agar in multiwell plates (24-well format) and sprayed with the formulated test compound diluted in water. The leaf disks are inoculated with a spore suspension of the fungus 2 days after application. The inoculated leaf disks are incubated at 23° C./21° C. (day/night) and 80% relative humidity under a light regime of 12 h/12 h (light/dark) in a climate cabinet and the activity of a compound is assessed as percent disease control compared to untreated when an appropriate level of disease damage appears on untreated check disk leaf disks (5-7 days after application).

Cn1cc(C2CN(C(=O)c3nnc(-c4ccc(F)cc4F)s3)Cc3ccccc32)cn1 (centres unmarked) [Compound P-1, [5-(2,4-difluorophenyl)-1,3,4-thiadiazol-2-yl]-[4-(1-methylpyrazol-4-yl)-3,4-dihydro-1H-isoquinolin-2-yl]methanone]
≥ 80%: inhibition of growth at 20 ppm (Botryotinia fuckeliana) | inhibition of growth at 20 ppm (Glomerella lagenarium) | inhibition of growth at 20 ppm (Monographella nivalis) | inhibition of growth at 20 ppm (Mycosphaerella arachidis) | inhibition of growth at 20 ppm [1]

Cc1c(C2(C)CN(C(=O)c3cc(-c4ccc(F)cc4F)on3)C(C)c3ccccc32)cnn1C (centres unmarked) [Compound P-16, [5-(2,4-difluorophenyl)isoxazol-3-yl]-[4-(1,5-dimethylpyrazol-4-yl)-1,4-dimethyl-1,3-dihydroisoquinolin-2-yl]methanone]
≥ 80%: inhibition of growth at 20 ppm (Botryotinia fuckeliana) | inhibition of growth at 20 ppm (Glomerella lagenarium) | inhibition of growth at 20 ppm (Monographella nivalis) | inhibition of growth at 20 ppm (Mycosphaerella arachidis) | inhibition of growth at 20 ppm [1]

Cn1cc(C2CN(C(=O)c3cc(-c4ccc(F)cc4F)on3)Cc3ccc(F)cc32)cn1 (centres unmarked) [Compound P-135, [5-(2,4-difluorophenyl)isoxazol-3-yl]-[6-fluoro-4-(1-methylpyrazol-4-yl)-3,4-dihydro-1H-isoquinolin-2-yl]methanone]
≥ 80%: inhibition of growth at 20 ppm (Botryotinia fuckeliana) | inhibition of growth at 20 ppm (Monographella nivalis) | inhibition of growth at 20 ppm (Mycosphaerella arachidis) | inhibition of growth at 20 ppm [1]

Cn1cc(C2CN(C(=O)c3nnc(-c4ccccc4)s3)Cc3ccccc32)cn1 (centres unmarked) [Compound P-162, [4-(1-methylpyrazol-4-yl)-3,4-dihydro-1H-isoquinolin-2-yl]-(5-phenyl-1,3,4-thiadiazol-2-yl)methanone]
≥ 80%: inhibition of growth at 20 ppm (Botryotinia fuckeliana) | inhibition of growth at 20 ppm (Glomerella lagenarium) | inhibition of growth at 20 ppm (Monographella nivalis) | inhibition of growth at 20 ppm (Mycosphaerella arachidis) | inhibition of growth at 20 ppm [1]

Cn1cc(C2CN(C(=O)c3noc(-c4cccc(F)c4)n3)Cc3ccccc32)cn1 (centres unmarked) [Compound P-92, [5-(3-fluorophenyl)-1,2,4-oxadiazol-3-yl]-[4-(1-methylpyrazol-4-yl)-3,4-dihydro-1H-isoquinolin-2-yl]methanone]
≥ 80%: pest or weed control at 200 ppm (Alternaria solani) | inhibition of growth at 20 ppm (Glomerella lagenarium) | inhibition of growth at 20 ppm (Monographella nivalis) | inhibition of growth at 20 ppm (Mycosphaerella arachidis) | inhibition of growth at 20 ppm [1]

Cn1cc(C2CN(C(=O)c3cc(-c4ccsc4)on3)Cc3ccccc32)cn1 (centres unmarked) [Compound P-181, [4-(1-methylpyrazol-4-yl)-3,4-dihydro-1H-isoquinolin-2-yl]-[5-(3-thienyl)isoxazol-3-yl]methanone]
≥ 80%: pest or weed control at 200 ppm (Alternaria solani) | inhibition of growth at 20 ppm (Glomerella lagenarium) | inhibition of growth at 20 ppm (Mycosphaerella arachidis) | inhibition of growth at 20 ppm [1]

Cn1cc(C2CN(C(=O)c3cc(-c4ccccc4)no3)Cc3ccccc32)cn1 (centres unmarked) [Compound P-158, [4-(1-methylpyrazol-4-yl)-3,4-dihydro-1H-isoquinolin-2-yl]-(3-phenylisoxazol-5-yl)methanone]
≥ 80%: pest or weed control at 200 ppm (Alternaria solani) | inhibition of growth at 20 ppm (Botryotinia fuckeliana) | inhibition of growth at 20 ppm (Glomerella lagenarium) | inhibition of growth at 20 ppm (Monographella nivalis) | inhibition of growth at 20 ppm (Mycosphaerella arachidis) | inhibition of growth at 20 ppm [1]

Cn1cc([C@@]2(C)CN(C(=O)c3nnc(-c4ccc(F)cc4F)s3)Cc3ccccc32)cn1 [Compound P-209, [5-(2,4-difluorophenyl)-1,3,4-thiadiazol-2-yl]-[(4S)-4-methyl-4-(1-methylpyrazol-4-yl)-1,3-dihydroisoquinolin-2-yl]methanone]
≥ 80%: inhibition of growth at 20 ppm (Botryotinia fuckeliana) | inhibition of growth at 20 ppm (Glomerella lagenarium) | inhibition of growth at 20 ppm (Monographella nivalis) | inhibition of growth at 20 ppm (Mycosphaerella arachidis) | inhibition of growth at 20 ppm [1]

Cn1cc(C2CN(C(=O)c3cc(-c4ccccc4F)on3)Cc3ccccc32)cn1 (centres unmarked) [Compound P-191, [5-(2-fluorophenyl)isoxazol-3-yl]-[4-(1-methylpyrazol-4-yl)-3,4-dihydro-1H-isoquinolin-2-yl]methanone]
≥ 80%: pest or weed control at 200 ppm (Alternaria solani) | inhibition of growth at 20 ppm (Glomerella lagenarium) | inhibition of growth at 20 ppm (Monographella nivalis) | inhibition of growth at 20 ppm (Mycosphaerella arachidis) | inhibition of growth at 20 ppm [1]

Cn1cc(C2CN(C(=O)c3cc(-c4cccc(F)c4)no3)Cc3ccccc32)cn1 (centres unmarked) [Compound P-159, [3-(3-fluorophenyl)isoxazol-5-yl]-[4-(1-methylpyrazol-4-yl)-3,4-dihydro-1H-isoquinolin-2-yl]methanone]
≥ 80%: inhibition of growth at 20 ppm (Botryotinia fuckeliana) | inhibition of growth at 20 ppm (Monographella nivalis) | inhibition of growth at 20 ppm (Mycosphaerella arachidis) | inhibition of growth at 20 ppm [1]

Cn1cc(C2CN(C(=O)c3nc(-c4ccccc4)no3)Cc3ccccc32)cn1 (centres unmarked) [Compound P-152, [4-(1-methylpyrazol-4-yl)-3,4-dihydro-1H-isoquinolin-2-yl]-(3-phenyl-1,2,4-oxadiazol-5-yl)methanone]
≥ 80%: inhibition of growth at 20 ppm (Botryotinia fuckeliana) | inhibition of growth at 20 ppm (Glomerella lagenarium) | inhibition of growth at 20 ppm (Monographella nivalis) | inhibition of growth at 20 ppm (Mycosphaerella arachidis) | inhibition of growth at 20 ppm [1]

COc1ccc2c(c1)C(c1cnn(C)c1)CN(C(=O)c1cc(-c3ccc(F)cc3F)on1)C2C (centres unmarked) [Compound P-47, [5-(2,4-difluorophenyl)isoxazol-3-yl]-[6-methoxy-1-methyl-4-(1-methylpyrazol-4-yl)-3,4-dihydro-1H-isoquinolin-2-yl]methanone]
≥ 80%: inhibition of growth at 20 ppm (Botryotinia fuckeliana) | inhibition of growth at 20 ppm (Glomerella lagenarium) | inhibition of growth at 20 ppm (Monographella nivalis) | inhibition of growth at 20 ppm (Mycosphaerella arachidis) | inhibition of growth at 20 ppm [1]

Cn1cc(C2CN(C(=O)c3cc(-c4ccccc4)on3)Cc3ccccc32)cn1 (single isomer, unassigned) [Compound P-165]
≥ 80%: pest or weed control at 200 ppm (Alternaria solani) | inhibition of growth at 20 ppm (Glomerella lagenarium) | inhibition of growth at 20 ppm (Monographella nivalis) | inhibition of growth at 20 ppm (Mycosphaerella arachidis) | inhibition of growth at 20 ppm [1]

Cn1cc(C2CN(C(=O)c3cc(-c4ccccc4F)no3)Cc3ccccc32)cn1 (centres unmarked) [Compound P-154, [3-(2-fluorophenyl)isoxazol-5-yl]-[4-(1-methylpyrazol-4-yl)-3,4-dihydro-1H-isoquinolin-2-yl]methanone]
≥ 80%: inhibition of growth at 20 ppm (Botryotinia fuckeliana) | inhibition of growth at 20 ppm (Glomerella lagenarium) | inhibition of growth at 20 ppm (Monographella nivalis) | inhibition of growth at 20 ppm (Mycosphaerella arachidis) | inhibition of growth at 20 ppm [1]

Cn1cc(C2CN(C(=O)c3cc(-c4ccc(F)cc4F)on3)Cc3cc(F)ccc32)cn1 (centres unmarked) [Compound P-134, [5-(2,4-difluorophenyl)isoxazol-3-yl]-[7-fluoro-4-(1-methylpyrazol-4-yl)-3,4-dihydro-1H-isoquinolin-2-yl]methanone]
≥ 80%: pest or weed control at 200 ppm (Alternaria solani) | inhibition of growth at 20 ppm (Monographella nivalis) | inhibition of growth at 20 ppm (Mycosphaerella arachidis) | inhibition of growth at 20 ppm [1]

Cn1cc(C2CN(C(=O)c3cc(-c4ccc(F)cc4)on3)Cc3ccccc32)cn1 (centres unmarked) [Compound P-192, [5-(4-fluorophenyl)isoxazol-3-yl]-[4-(1-methylpyrazol-4-yl)-3,4-dihydro-1H-isoquinolin-2-yl]methanone]
≥ 80%: inhibition of growth at 20 ppm (Botryotinia fuckeliana) | inhibition of growth at 20 ppm (Glomerella lagenarium) | inhibition of growth at 20 ppm [1]

CC1c2ccc(Br)cc2C(C)(c2cnn(C)c2)CN1C(=O)c1cc(-c2ccc(F)cc2F)on1 (centres unmarked) [Compound P-215, [6-bromo-1,4-dimethyl-4-(1-methylpyrazol-4-yl)-1,3-dihydroisoquinolin-2-yl]-[5-(2,4-difluorophenyl)isoxazol-3-yl]methanone]
≥ 80%: inhibition of growth at 20 ppm (Botryotinia fuckeliana) | inhibition of growth at 20 ppm (Glomerella lagenarium) | inhibition of growth at 20 ppm (Monographella nivalis) | inhibition of growth at 20 ppm (Mycosphaerella arachidis) | inhibition of growth at 20 ppm [1]
